Legend:
[1] = test system: Stage IV Carcinoid tumor of the small bowel; assay: Prior chemo regimens of the carcinoid patient (history); type: in vivo, human; conditions: December 2009 to March 2010
From the text: (§1) In a human clinical trial conducted in the US, a person with Stage IV Carcinoid tumor of the small bowel (a neuroectodermal tumor or NET) was selected to undergo treatment of sodium trans-[tetrachlorobis(1H-indazole)ruthenate(III)]. They previously had 2 surgeries: an exploratory lap (diagnosis of neuroendocrine tumor) in June 2008, and a partial surgical resection of mass in October 2008. The second surgery was followed by chemoembolization of residual tumor masses for palliative treatment in October 2008 and in November 2008. Systemic chemotherapy with capecitibine was administered between July and August 2009. In August 2009, therapy was changed to octreotide (Sandostatin LAR), but this was discontinued in November 2009.

[2] = test system: human thyroid carcinoma cell line MB1; assay: ATCC MTT Cell Proliferation Assay, MB1; type: cell-based; conditions: MB1 cells, 72 hours post-treatment, read-out: IC50 (concentration that inhibits cell growth by 50%)
Procedure: (§2) To test the activities of sodium trans-[tetrachlorobis(1H-indazole)ruthenate(III)], ATCC's MTT Cell Proliferation Assay® was performed using human thyroid carcinoma cell line MB1 and Merkel cell carcinoma cell line MKL-1, both being neuroendocrine tumor (NET) cell lines. Stock cultures were allowed to grow to 70-80% confluence for this study. The anti-proliferative activity of sodium trans-[tetrachlorobis(1H-indazole)ruthenate(III)], against the indicated cell line was evaluated in vitro using the ATCC's MTT Cell Proliferation Assay (Catalog No. 30-1010K). […] The plates were left overnight at room temperature in the dark and was read on a plate reader using SoftMax® Pro (version 5.2, Molecular Devices).
(§3) The absorbance data was analyzed as follows: Absorbance values were converted to Percent of Control and plotted against test agent concentrations for IC50 calculations using SoftMax® Pro (version 5.2, Molecular Devices). […] Percent of Control values were calculated by dividing the absorbance values for each test well by the No Drug Control average (column 11 values; cells+vehicle control) and multiplying by 100. Plots of Compound Concentration versus Percent of Control were analyzed using the 4-parameter equation to obtain IC50 values and other parameters that describe the sigmoidal dose response curve. […]

[3] = test system: Merkel cell carcinoma cell line MKL-1; assay: ATCC MTT Cell Proliferation Assay, MKL-1; type: cell-based, human; conditions: MKL-1 cells, 72 hours post-treatment, read-out: IC50 (concentration that inhibits cell growth by 50%)
Procedure: as §2, §3

[4] = test system: Stage IV Carcinoid tumor of the small bowel; assay: Human clinical trial, carcinoid patient, tumor lesions by CT scan; type: in vivo; conditions: for Size of tumor lesion by CT scan, Left periaortic LN: baseline 2.5; for Size of tumor lesion by CT scan, Portacaval LN: baseline 3.0; for Size of tumor lesion by CT scan, Stomach/mesenteric LN: baseline 3.3; for Size of tumor lesion by CT scan, Esophageal LN: baseline 3.8
From the text: as §1
As the tumors were progressing, the patient started therapy on May 7, 2010 with intravenous injection of sodium trans-[tetrachlorobis(1H-indazole)ruthenate(III)] at 320 mg/m^2 based on body surface area (for a total dose of 630 mg per administration) once per week, on days 1, 8, and 15 of each 28-day cycle. At that time the patient had four metastatic sites originating from the primary tumor small intestine carcinoid. The four metastatic sites were in portacaval lymph node, left periaortic lymph node, stomach/mesenteric lymph node, and esophageal lymph node. CT scan of the tumors was done at the start of the treatment (baseline), and thereafter every two months.

[5] = test system: Stage IV gastrinoma of the stomach; assay: Human clinical trial, gastrinoma patient, tumor response; type: in vivo; conditions: 420 mg/m^2 i.v. days 1, 8, 15 of 28-day cycle, 6 cycles
From the text: (§4) In the same human clinical trial described above, a person with Stage IV gastrinoma of the stomach, (a neuroectodermal tumor or NET) diagnosed in December 2006 was enrolled. They had multiple attempts to achieve disease control with hepatic artery embolization in […], in January 2007, and in September 2007. Localized radiotherapy with Yttrium-90 instillation to the right lobe of the liver in March 2009 and the left lobe in May 2009 was attempted. Yet the tumor was not controlled.

serum gastrin = assay: Serum gastrin level by chemiluminescence method in gastrinoma patient; type: in vivo, human; conditions: reduced from 8291
From the text: as §4
Serum gastrin levels were measured using chemiluminescence method during the treatment period.

[6] = End of 2nd Cycle (Jun. 24, 2010), 320 mg/m^2 i.v.
[7] = End of 4th Cycle (Aug. 19, 2010), 320 mg/m^2 i.v.
[8] = carcinoid patient, 320 mg/m^2 i.v. once per week

SMILES | outcome of prior therapy [1] | IC50 [2] [µM] | IC50 [3] [µM] | Size of tumor lesion by CT scan, Left periaortic LN [4, 6] | Size of tumor lesion by CT scan, Portacaval LN ([4]; End of 2nd Cycle (Jun. 24, 2010), 320 mg/m^2 i.v. days 1, 8, 15 of 28-day cycle) | Size of tumor lesion by CT scan, Stomach/mesenteric LN [4, 6] | Size of tumor lesion by CT scan, Esophageal LN [4, 6] | Size of tumor lesion by CT scan, Left periaortic LN [4, 7] | Size of tumor lesion by CT scan, Portacaval LN [4, 7] | Size of tumor lesion by CT scan, Stomach/mesenteric LN [4, 7] | Size of tumor lesion by CT scan, Esophageal LN [4, 7] | disease status on treatment ([4]; after 14 cycles, as of July 2011) | effect on the remaining three lesions [4, 8] | tumor regression in one lesion [4, 8] [%] | serious adverse events ([4]; carcinoid patient, 320 mg/m^2 i.v., 14 cycles) | best response [5] | serum gastrin level reduced during the course of therapy (serum gastrin)
C[C@@H](Oc1cc(-c2cnn(C3CCNCC3)c2)cnc1N)c1c(Cl)ccc(F)c1Cl [crizotinib] | disease progression |  |  |  |  |  |  |  |  |  |  |  |  |  |  |  | 
[Cl][Ru-]([Cl])([Cl])[Cl].[Na+].c1ccc2[nH]ncc2c1.c1ccc2[nH]ncc2c1 [sodium trans-[tetrachlorobis(1H-indazole)ruthenate(III)]] |  | 73.7 | 40.4 | 2.5 | 2.9 | 3.1 | 3.0 | 2.5 | 2.9 | 3.1 | 2.0 | remains under control | stopped tumor growth | ~50 | No serious adverse events have been observed | stable disease | 6120

Reference: patent publication US9089578B2, “Method of treating neuroendocrine tumors” (Niiki Pharma Acquisition Corp. 2, priority 2010, dated 2015)
